In US8420655B2, “Benzimidazole inhibitors of leukotriene production” (Boehringer Ingelheim International GmbH, priority 2009, dated 2013):

biological target: T1, recombinant human FLAP protein (Homo sapiens, UniProt P20292); test: FLAP binding assay, displacement of iodinated (125I) FLAP inhibitor, Scintillation Proximity Assay format; conditions: [125I]L-691,831 probe, membrane protein from sf9 cells; read-out: hFLAP binding IC50
T1 construct: made in house; host or cells: Sf9 insect cells (membrane fraction, 100,000 x g pellet)
T1 sequence (P20292 1-161): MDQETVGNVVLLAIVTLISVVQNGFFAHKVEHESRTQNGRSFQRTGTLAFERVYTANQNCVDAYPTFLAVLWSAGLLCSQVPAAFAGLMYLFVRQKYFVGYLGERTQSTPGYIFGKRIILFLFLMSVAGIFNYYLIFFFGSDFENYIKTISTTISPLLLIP
Procedure: Compounds are assessed for the ability to bind to FLAP in a binding assay that measures compound-specific displacement of an iodinated (^125I) FLAP inhibitor via a Scintillation Proximity Assay format (adapted from S. Charleson et al., Mol. Pharmacol., 1992, 41, 873-879).
Cell pellets produced from sf9 insect cells expressing recombinant human FLAP protein are resuspended in buffer A [15 mM Tris-HCl (pH 7.5), 2 mM MgCl2, 0.3 mM EDTA, 1 mM PMSF]. The cells are lysed with a Dounce homogenizer and the material is centrifuged at 10,000×g for 10 minutes. The supernatant is then collected and centrifuged at 100,000×g for 60 minutes. To prepare membrane protein for an assay, an aliquot of the 100,000×g pellet is resuspended in 1 ml of buffer A, Dounce homogenized, and finally subjected to polytron mixing (30 seconds). Membrane protein (25 μl, 5 μg) is mixed with WGA SPA beads (Amersham) and stirred for 1 h. To an assay plate (Perkin Elmer FlexiPlate) is added 25 μl of test compound prepared in Binding buffer [100 mM Tris (pH 7.5), 140 mM NaCl, 5% glycerol, 2 mM EDTA, 0.5 mM TCEP, 0.05% Tween 20], 25 μl of [^125I]L-691,831 (an iodinated analog of MK-591, Charleson et al. Mol. Pharmacol., 41, 873-879, 1992) and finally 50 μl of the bead/protein mixture. (final concentrations: beads, 200 μg/well; protein, 5 μg/well; [^125I] probe, 0 08 nM/well (17 nCi/well). The plates are shaken for 2 h before reading on a Microbeta plate reader. Non-specific binding is determined by the addition of 10 μM cold L-691,831 compound.

Point of comparison: `COc1ccc(-n2cncn2)c(-c2nc3cc(-c4cnc(N)nc4)ccc3n2C(C)(C)C)c1` [5-[1-tert-Butyl-2-(5-methoxy-2-1,2,4-triazol-1-yl-phenyl)-1H-benzimidazol-5-yl]-pyrimidin-2-ylamine], IC50 1.7 nM. Against it:
- CCCCC/C(=C\C(=O)O)c1ccc(-n2cncn2)c(-c2nc3cc(-c4cnc(N)nc4)ccc3n2C(C)(C)C)c1 [(E)-3-{3-[5-(2-Amino-pyrimidin-5-yl)-1-tert-butyl-1H-benzoimidazol-2-yl]-4-[1,2,4]triazol-1-yl-phenyl}-oct-2-enoic acid] — 3.5-fold higher, 6 nM
- C=Cc1ccc(-n2cncn2)c(-c2nc3cc(-c4cnc(N)nc4)ccc3n2C(C)(C)C)c1 [5-[1-tert-Butyl-2-(2-1,2,4-triazol-1-yl-5-vinyl-phenyl)-1H-benzimidazol-5-yl]-pyrimidin-2-ylamine] — within 1.5-fold, 1.3 nM
- COc1ccc(-n2ccc(C)n2)c(-c2nc3cc(-c4cnc(N)nc4)ccc3n2C(C)(C)C)c1 [5-{1-tert-Butyl-2-[5-methoxy-2-(3-methyl-pyrazol-1-yl)-phenyl]-1H-benzimidazol-5-yl}-pyrimidin-2-ylamine] — 5.2-fold higher, 8.8 nM
- CC(C)(C)n1c(-c2cc(C#N)ccc2-n2cnc(Br)n2)nc2cc(-c3cnc(N)nc3)ccc21 [3-[5-(2-Amino-pyrimidin-5-yl)-1-tert-butyl-1H-benzoimidazol-2-yl]-4-(3-bromo-[1,2,4]triazol-1-yl)-benzonitrile] — 2-fold lower, 0.83 nM
- COc1ccc(-c2nc(C)no2)c(-c2nc3cc(-c4cnc(N)nc4)ccc3n2C(C)(C)C)c1 [5-{1-tert-Butyl-2-[5-methoxy-2-(3-methyl-1,2,4-oxadiazol-5-yl)-phenyl]-1H-benzimidazol-5-yl}-pyrimidin-2-ylamine] — 14-fold higher, 24 nM
- Cc1ncn(-c2ccc(C#N)cc2-c2nc3cc(-c4cnc(N)nc4)ccc3n2C(C)(C)C)n1 [3-[5-(2-Amino-pyrimidin-5-yl)-1-tert-butyl-1H-benzimidazol-2-yl]-4-(3-methyl-1,2,4-triazol-1-yl)-benzonitrile] — 1.8-fold higher, 3 nM
- CC(C)(C)n1c(-c2ccccc2-c2ncn(CCO)n2)nc2cc(-c3cnc(N)nc3)ccc21 [2-(3-{2-[5-(2-Amino-pyrimidin-5-yl)-1-tert-butyl-1H-benzoimidazol-2-yl]-phenyl}-[1,2,4]triazol-1-yl)-ethanol] — 3.4-fold higher, 5.8 nM
- CC(C)(C)n1c(-c2ccccc2-c2ncn(CC#N)n2)nc2cc(-c3cnc(N)nc3)ccc21 [(3-{2-[5-(2-Amino-pyrimidin-5-yl)-1-tert-butyl-1H-benzoimidazol-2-yl]-phenyl}-[1,2,4]triazol-1-yl)-acetonitrile] — 2.5-fold higher, 4.2 nM
- Cc1ccn(-c2ccccc2-c2nc3cc(-c4cnc(N)nc4)ccc3n2C(C)(C)C)n1 [5-{1-tert-Butyl-2-[2-(3-methyl-pyrazol-1-yl)-phenyl]-1H-benzimidazol-5-yl}-pyrimidin-2-ylamine] — 1.5-fold lower, 1.1 nM
- CCCCC/C(=C\C(=O)OC)c1ccc(-n2cncn2)c(-c2nc3cc(-c4cnc(N)nc4)ccc3n2C(C)(C)C)c1 [(E)-3-{3-[5-(2-Amino-pyrimidin-5-yl)-1-tert-butyl-1H-benzoimidazol-2-yl]-4-[1,2,4]triazol-1-yl-phenyl}-oct-2-enoic acid methyl ester] — 16-fold higher, 28 nM
- Cc1ncnn1-c1ccccc1-c1nc2cc(-c3cnc(N)nc3)ccc2n1C(C)(C)C [5-{1-tert-Butyl-2-[2-(5-methyl-1,2,4-triazol-1-yl)-phenyl]-1H-benzimidazol-5-yl}-pyrimidin-2-ylamine] — 1.9-fold higher, 3.3 nM
- CNC(=O)c1ccc(-n2cncn2)c(-c2nc3cc(-c4cnc(N)nc4)ccc3n2C(C)(C)C)c1 [3-[5-(2-Amino-pyrimidin-5-yl)-1-tert-butyl-1H-benzoimidazol-2-yl]-N-methyl-4-[1,2,4]triazol-1-yl-benzamide] — 12-fold higher, 20 nM
- CC(C)(C)n1c(-c2cc(I)ccc2-n2cncn2)nc2cc(-c3cnc(N)nc3)ccc21 [5-[1-tert-Butyl-2-(5-iodo-2-1,2,4-triazol-1-yl-phenyl)-1H-benzimidazol-5-yl]-pyrimidin-2-ylamine] — 1.6-fold higher, 2.7 nM
- Cc1ncnn1-c1ccc(Cl)cc1-c1nc2cc(-c3cnc(N)nc3)ccc2n1C(C)(C)C [5-{1-tert-butyl-2-[5-chloro-2-(5-methyl-1,2,4-triazol-1-yl)-phenyl]-1H-benzimidazol-5-yl}-pyrimidin-2-ylamine] — 4.1-fold higher, 6.9 nM
- CC(C)(C)n1c(-c2cc(S(C)(=O)=O)ccc2-n2cncn2)nc2cc(-c3cnc(N)nc3)ccc21 [5-[1-tert-Butyl-2-(5-methanesulfonyl-2-[1,2,4]triazol-1-yl-phenyl)-1H-benzoimidazol-5-yl]-pyrimidin-2-ylamine] — 22-fold higher, 36.8 nM
- CCc1ccc(-n2cncn2)c(-c2nc3cc(-c4cnc(N)nc4)ccc3n2C(C)(C)C)c1 [5-[1-tert-Butyl-2-(5-ethyl-2-1,2,4-triazol-1-yl-phenyl)-1H-benzimidazol-5-yl]-pyrimidin-2-ylamine] — within 1.5-fold, 2.4 nM
- Cc1ccn(-c2ccc(C#N)cc2-c2nc3cc(-c4cnc(N)nc4)ccc3n2C(C)(C)C)n1 [3-[5-(2-Amino-pyrimidin-5-yl)-1-tert-butyl-1H-benzoimidazol-2-yl]-4-(3-methyl-pyrazol-1-yl)-benzonitrile] — within 1.5-fold, 1.8 nM
- CC(C)(C)n1c(-c2cc(C#N)ccc2-n2cnc(-c3ccccc3Cl)n2)nc2cc(-c3cnc(N)nc3)ccc21 [3-[5-(2-Amino-pyrimidin-5-yl)-1-tert-butyl-1H-benzoimidazol-2-yl]-4-[3-(2-chloro-phenyl)-[1,2,4]triazol-1-yl]-benzonitrile] — 2.6-fold higher, 4.4 nM
- COCc1ccc(-n2cncn2)c(-c2nc3cc(-c4cnc(N)nc4)ccc3n2C(C)(C)C)c1 [5-[1-tert-Butyl-2-(5-methoxymethyl-2-[1,2,4]triazol-1-yl-phenyl)-1H-benzoimidazol-5-yl]-pyrimidin-2-ylamine] — 8.2-fold higher, 13.9 nM
- CC(C)(COc1ccc(-c2nc3cc(-c4cnc(N)nc4)ccc3n2C(C)(C)C)c(-n2cncn2)c1)C(=O)O [3-{4-[5-(2-Amino-pyrimidin-5-yl)-1-tert-butyl-1H-benzoimidazol-2-yl]-3-[1,2,4]triazol-1-yl-phenoxy}-2,2-dimethyl-propionic acid] — 2.4-fold higher, 4 nM
- CCNC(=O)c1ncn(-c2ccc(C#N)cc2-c2nc3cc(-c4cnc(N)nc4)ccc3n2C(C)(C)C)n1 [1-{2-[5-(2-Amino-pyrimidin-5-yl)-1-tert-butyl-1H-benzoimidazol-2-yl]-4-cyano-phenyl}-1H-[1,2,4]triazole-3-carboxylic acid ethylamide] — 17-fold higher, 29.5 nM
- Cc1ncn(-c2ccccc2-c2nc3cc(-c4cnc(N)nc4)ccc3n2C(C)(C)C)n1 [5-{1-tert-Butyl-2-[2-(3-methyl-1,2,4-triazol-1-yl)-phenyl]-1H-benzimidazol-5-yl}-pyrimidin-2-ylamine] — within 1.5-fold, 1.6 nM
- CC(C)(C)n1c(-c2cc(Br)ccc2-n2cncn2)nc2cc(-c3cnc(N)nc3)ccc21 [5-[2-(5-Bromo-2-1,2,4-triazol-1-yl-phenyl)-1-tert-butyl-1H-benzimidazol-5-yl]-pyrimidin-2-ylamine] — 2.6-fold higher, 4.5 nM
- CCOCc1ccc(-n2cncn2)c(-c2nc3cc(-c4cnc(N)nc4)ccc3n2C(C)(C)C)c1 [5-[1-tert-Butyl-2-(5-ethoxymethyl-2-[1,2,4]triazol-1-yl-phenyl)-1H-benzoimidazol-5-yl]-pyrimidin-2-ylamine] — 5.9-fold higher, 10 nM
- CC(C)(C)n1c(-c2cc(CO)ccc2-n2cncn2)nc2cc(-c3cnc(N)nc3)ccc21 [{3-[5-(2-Amino-pyrimidin-5-yl)-1-tert-butyl-1H-benzoimidazol-2-yl]-4-[1,2,4]triazol-1-yl-phenyl}-methanol] — 6.1-fold higher, 10.4 nM
- Cn1nnc(-c2ccccc2-c2nc3cc(-c4cnc(N)nc4)ccc3n2C(C)(C)C)n1 [5-{1-tert-Butyl-2-[2-(2-methyl-2H-tetrazol-5-yl)-phenyl]-1H-benzimidazol-5-yl}-pyrimidin-2-ylamine] — within 1.5-fold, 1.3 nM
- COc1ccc(-n2cccn2)c(-c2nc3cc(-c4cnc5c(c4)CCN5)ccc3n2C(C)(C)C)c1 [1-tert-Butyl-5-(2,3-dihydro-1H-pyrrolo[2,3-b]pyridin-5-yl)-2-(5-methoxy-2-pyrazol-1-yl-phenyl)-1H-benzimidazole] — within 1.5-fold, 1.5 nM
- CC(C)(C)n1c(-c2ccccc2-n2cncn2)nc2cc(-c3cnc(N)nc3)ccc21 — 1.6-fold higher, 2.7 nM
- COc1ccc(-n2cc(Cl)cn2)c(-c2nc3cc(-c4cnc(N)nc4)ccc3n2C(C)(C)C)c1 [5-{1-tert-Butyl-2-[2-(4-chloro-pyrazol-1-yl)-5-methoxy-phenyl]-1H-benzimidazol-5-yl}-pyrimidin-2-ylamine] — within 1.5-fold, 1.6 nM
- CC(C)(C)n1c(-c2ccccc2-n2cncn2)nc2cc(-c3cnc4c(c3)CCN4)ccc21 [1-tert-Butyl-5-(2,3-dihydro-1H-pyrrolo[2,3-b]pyridin-5-yl)-2-(2-1,2,4-triazol-1-yl-phenyl)-1H-benzimidazole] — within 1.5-fold, 2.1 nM
